Where two headings read alike, the source gives them in different places. Some results are limits rather than exact numbers.

One assay has as its target T1, VEGF (Homo sapiens, UniProt P15692).
T1 sequence (P15692 27-191 isoform P15692-4): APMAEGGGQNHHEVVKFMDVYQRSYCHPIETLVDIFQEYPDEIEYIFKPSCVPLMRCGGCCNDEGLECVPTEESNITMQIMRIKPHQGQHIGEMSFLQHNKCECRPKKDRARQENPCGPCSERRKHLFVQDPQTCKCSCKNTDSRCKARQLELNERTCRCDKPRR
The assay can be described thus: Biacore biosensor: inhibition of VEGF binding to immobilised heparin and heparan sulfate. Conditions: inhibitor 0.034 μM, VEGF 0.025 μM. On the procedure:
(§1) Assays were performed using a Biacore™ 2000 optical biosensor obtained from Biacore AB, Uppsala, Sweden. The biosensor was operated in accordance with the manufacturer's instructions. Briefly, neutravidin was covalently coupled to the surface of CM5 chips of the biosensor and then either biotinylated heparin (1 μg/ml) or biotinylated heparan sulfate ([…]) bound to the immobilised neutravidin. Mixtures of a test compound and a growth factor or other effector compound were preincubated for 2 to 5 minutes and the mixtures then added to individual biosensor cuvettes. Binding of growth factor or effector compound to the heparin or heparan sulfate was then monitored for approximately 5 minutes with the biosensor.
(§2) The tabulated values are the IC50 in μM or % inhibition of binding of the growth factor to the immobilised heparan sulfate (HS) or heparin.
Background: In SPR one partner is held on a chip, and binding of the other changes the refractive index at the surface.

The target of another assay is bFGF (Homo sapiens, UniProt P09038). The assay can be described thus: Biacore biosensor: inhibition of bFGF binding to immobilised heparin and heparan sulfate. Conditions: for inhibition at 0.034 µM: inhibitor 0.034 μM, bFGF 0.034 μM. The protocol: as §1, §2
Assay [1] has as its target T2, human leukocyte Cathepsin G (Homo sapiens, UniProt P08311).
T2 construct: human leukocyte Cathepsin G (100 ng protein); from tissue; host or cells: human leukocytes
T2 sequence (P08311 21-244): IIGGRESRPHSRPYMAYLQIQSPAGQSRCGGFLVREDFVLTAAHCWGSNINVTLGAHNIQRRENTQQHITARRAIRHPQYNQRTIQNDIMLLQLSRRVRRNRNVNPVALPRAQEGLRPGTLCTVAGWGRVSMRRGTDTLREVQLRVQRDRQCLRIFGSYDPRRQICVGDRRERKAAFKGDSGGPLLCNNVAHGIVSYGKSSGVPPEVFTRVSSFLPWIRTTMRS
The assay can be described thus: Cathepsin G inhibition, fluorogenic substrate, 96 well assay. In kind it is biochemical. Conditions: human leukocyte cathepsin G 100 ng, 37° C., 60 min, pH 6.6; read-out: Amount for 50% inhibition (converted). The protocol: Cathepsin G activity was determined using a 96 well assay format in PVC microtitre U-bottom plates with activity determination by a fluorescence plate reader. Briefly, within a total incubation volume of 40 μl, human leukocyte Cathepsin G (100 ng protein) was added to a mixture of inhibitor and the fluorogenic substrate MeOSuc-ala-ala-pro-phe-AMAC in 50 mM-NaOAc buffer, pH 6.6 containing 50 mM NaCl and 0.1% (v/v) Brij 35. The mixture was incubated at 37° C. for 60 min, the reaction stopped by the addition of 40 μl of 250 mM acetic acid and the fluorescence determined with excitation at 360 nm and emitted light measured at 460 nm.
In this table, the linked cyclitol compound identifications are the same as those given in Section A above where the structures of the compounds are also given. With regard to the purity rating, a greater number of asterisks signifies a greater degree of purity with five asterisks signifying an essentially pure compound. The cathepsin G inhibition data are the concentrations of compounds required to inhibit the enzyme by 50%.

The target in the next assay is T3, IL-8 (Homo sapiens, UniProt P10145).
T3 sequence (P10145 21-99): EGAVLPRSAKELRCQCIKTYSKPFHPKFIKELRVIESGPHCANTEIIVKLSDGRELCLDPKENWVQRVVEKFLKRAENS
Description: Biacore biosensor: inhibition of IL-8 binding to immobilised heparin and heparan sulfate. The settings on record: inhibitor 1.0 μM, IL-8 0.068 μM. On the procedure:
as §1

The target in another assay is aFGF (Homo sapiens, UniProt P05230). Description: Biacore biosensor: inhibition of aFGF binding to immobilised heparin and heparan sulfate. The settings on record: inhibitor 0.034 μM, aFGF 0.025 μM. On the procedure: as §1, §2
For assay [2], the target named is T4, human platelet heparanase (Homo sapiens, UniProt Q9Y251).
T4 construct: 10 ng of purified human platelet heparanase; from tissue; host or cells: human platelets
T4 sequence (Q9Y251 158-543 limits assumed): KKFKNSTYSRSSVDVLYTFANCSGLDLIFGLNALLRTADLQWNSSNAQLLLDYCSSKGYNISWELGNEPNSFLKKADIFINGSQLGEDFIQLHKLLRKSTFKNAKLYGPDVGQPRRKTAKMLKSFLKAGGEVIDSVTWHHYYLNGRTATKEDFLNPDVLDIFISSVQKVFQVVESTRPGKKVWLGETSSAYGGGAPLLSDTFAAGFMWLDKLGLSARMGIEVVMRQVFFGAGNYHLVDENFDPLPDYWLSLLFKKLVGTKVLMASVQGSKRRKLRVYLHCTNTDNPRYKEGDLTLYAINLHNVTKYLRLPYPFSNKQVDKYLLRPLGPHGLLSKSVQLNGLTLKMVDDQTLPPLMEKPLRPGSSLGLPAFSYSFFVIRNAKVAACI
T4 sequence (Q9Y251 36-109 limits assumed): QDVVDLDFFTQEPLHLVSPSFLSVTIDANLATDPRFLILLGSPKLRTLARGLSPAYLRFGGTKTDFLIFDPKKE
The assay can be described thus: Heparanase inhibition, 3H-radiolabelled HS cleavage assay. In kind it is biochemical. Conditions: for inhibition: based on a comparison with heparin with 100% inhibition at 30 μg/ml, read-out: Relative inhibition (%); for EC50: heparanase inhibition, read-out: EC50 (converted); for inhibition at 10 µg/mL: read-out: Inhibition (%) at 10 μg/ml. The protocol:
Briefly, to an incubation mixture of […] containing ^3H-radiolabelled porcine mucosal HS […], 50 mM-sodium acetate buffer, pH 5.0, […] bovine serum albumin and the inhibitor to be tested, was added 10 ng of purified human platelet heparanase and the mixture incubated for 30 min. The reaction was terminated by freezing the assay tubes. The substrate was separated from the cleavage products on minicolumns of sepharose-bound histidine-rich glycoprotein (Freeman, C., and Parish, C. R. [1997], supra).
Inhibitory activity is based on a comparison with heparin with 100% inhibition at 30 μg/ml. The compounds were also tested at the same purity as in Example 15.

Where [3] appears, read: immobilised heparan sulfate, read-out: Inhibition of binding of VEGF (HS).
Setting [4] is: immobilised heparin, read-out: Inhibition of binding of VEGF (Hep).
[5] abbreviates: immobilised heparan sulfate, read-out: Inhibition of binding of bFGF (HS).
[6] abbreviates: immobilised heparin, read-out: Inhibition of binding of bFGF (Hep).
Setting [7] is: immobilised heparan sulfate, read-out: Inhibition of binding of IL-8 (HS).
[8] abbreviates: immobilised heparin, read-out: Inhibition of binding of IL-8 (Hep).
The mark [9] stands for this setting: immobilised heparan sulfate, read-out: Inhibition of binding of aFGF (HS).
Setting [10] is: immobilised heparin, read-out: Inhibition of binding of aFGF (Hep).

Chain of bFGF (P09038 134-288 limits assumed, species assumed): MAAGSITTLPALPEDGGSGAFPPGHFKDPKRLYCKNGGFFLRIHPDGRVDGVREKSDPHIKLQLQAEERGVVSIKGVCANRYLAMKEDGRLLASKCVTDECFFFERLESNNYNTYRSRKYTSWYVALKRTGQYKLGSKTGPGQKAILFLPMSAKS
Chain of aFGF (P05230 whole entry, species assumed): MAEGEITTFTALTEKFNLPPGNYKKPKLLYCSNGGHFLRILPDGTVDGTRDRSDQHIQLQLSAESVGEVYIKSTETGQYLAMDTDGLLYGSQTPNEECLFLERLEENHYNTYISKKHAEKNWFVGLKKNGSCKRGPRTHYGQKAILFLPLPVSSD

Broadly, the EC50 is the concentration that produces a half-maximal response. Turning to `O=S(=O)(O)O[C@H]1[C@H](OS(=O)(=O)O)[C@@H](N(CCCCCCCCCN([C@H]2C=C[C@@H](OS(=O)(=O)O)[C@@H](OS(=O)(=O)O)[C@@H]2OS(=O)(=O)O)[C@H]2C=C[C@@H](OS(=O)(=O)O)[C@@H](OS(=O)(=O)O)[C@@H]2OS(=O)(=O)O)[C@H]2C=C[C@@H](OS(=O)(=O)O)[C@@H](OS(=O)(=O)O)[C@@H]2OS(=O)(=O)O)C=C[C@H]1OS(=O)(=O)O` [Compound 4j], the inhibition at 0.034 µM on VEGF (setting [3]) is 54%; at VEGF (setting [4]) it was 64%; at bFGF (setting [5]), 43%; on bFGF (setting [6]) it was 46%; on aFGF (setting [9]), 31%; on aFGF (setting [10]), 31%. The IC50 in assay [1] was 91.9 nM. Also, the results for the inhibition at 1 µM at IL-8 (setting [7]) and on IL-8 (setting [8]) were 65% and 62%, respectively. Also, in assay [2], the inhibition was determined as 73%. In addition, the EC50 in assay [2] was 6130 nM.
For `O=S(=O)(O)O[C@H]1[C@H](OS(=O)(=O)O)[C@@H](N(CCCN([C@H]2C=C[C@@H](OS(=O)(=O)O)[C@@H](OS(=O)(=O)O)[C@@H]2OS(=O)(=O)O)[C@H]2C=C[C@@H](OS(=O)(=O)O)[C@@H](OS(=O)(=O)O)[C@@H]2OS(=O)(=O)O)[C@H]2C=C[C@@H](OS(=O)(=O)O)[C@@H](OS(=O)(=O)O)[C@@H]2OS(=O)(=O)O)C=C[C@H]1OS(=O)(=O)O` [Compound 4a], the inhibition at 0.034 µM stood at 4% at VEGF (setting [3]); 5% on VEGF (setting [4]); 29% at bFGF (setting [5]); 20% at bFGF (setting [6]); 73% on aFGF (setting [9]); 74% at aFGF (setting [10]). The IC50 at bFGF (immobilised heparan sulfate, read-out: IC50, inhibition of bFGF binding (HS)) was 110 nM; on bFGF (immobilised heparin, read-out: IC50, inhibition of bFGF binding (Hep)), over 250 nM; in assay [1], 162 nM. The figures for the inhibition at 1 µM at IL-8 (setting [7]) and at IL-8 (setting [8]) were 38% and 48%, respectively. The inhibition in assay [2] turned out to be 60%. The EC50 in assay [2] is 16200 nM. The inhibition at 10 µg/mL in assay [2] stood at 37%.
With `O=S(=O)(O)O[C@H]1[C@H](OS(=O)(=O)O)[C@@H](N(CCCCCCCN([C@H]2C=C[C@@H](OS(=O)(=O)O)[C@@H](OS(=O)(=O)O)[C@@H]2OS(=O)(=O)O)[C@H]2C=C[C@@H](OS(=O)(=O)O)[C@@H](OS(=O)(=O)O)[C@@H]2OS(=O)(=O)O)[C@H]2C=C[C@@H](OS(=O)(=O)O)[C@@H](OS(=O)(=O)O)[C@@H]2OS(=O)(=O)O)C=C[C@H]1OS(=O)(=O)O` [Compound 4h], the inhibition at 0.034 µM on VEGF (setting [3]) turned out to be 55%; at VEGF (setting [4]) it was 68%; on bFGF (setting [5]), 48%; at bFGF (setting [6]) it was 40%; on aFGF (setting [9]), 30%; at aFGF (setting [10]), 28%. The IC50 in assay [1] is 318 nM. Besides, the inhibition at 1 µM at IL-8 (setting [7]) stood at 54%; on IL-8 (setting [8]), 52%. Also, the inhibition in assay [2] amounted to 48%. Besides, in assay [2], the concentration giving a half-maximal response (EC50) was 20000 nM. Also, the inhibition at 10 µg/mL in assay [2] came to 33%.
On to `O=S(=O)(O)O[C@H]1[C@H](OS(=O)(=O)O)[C@@H](N(CCCCCN([C@H]2C=C[C@@H](OS(=O)(=O)O)[C@@H](OS(=O)(=O)O)[C@@H]2OS(=O)(=O)O)[C@H]2C=C[C@@H](OS(=O)(=O)O)[C@@H](OS(=O)(=O)O)[C@@H]2OS(=O)(=O)O)[C@H]2C=C[C@@H](OS(=O)(=O)O)[C@@H](OS(=O)(=O)O)[C@@H]2OS(=O)(=O)O)C=C[C@H]1OS(=O)(=O)O` [Compound 4k], for which the inhibition at 0.034 µM on VEGF (setting [3]) is 30%; on VEGF (setting [4]), 41%; on bFGF (setting [5]), 45%; at bFGF (setting [6]) it was 36%; at aFGF (setting [9]), 39%; on aFGF (setting [10]), 43%. For the same molecule, the IC50 in assay [1] is 133 nM. In addition, the inhibition at 1 µM at IL-8 (setting [7]) is 54%; at IL-8 (setting [8]), 67%. In addition, in assay [2], the inhibition came out at 50%. Besides, the inhibition at 10 µg/mL in assay [2] is 39%.

The values are drawn from US7173019B2, “Linked cyclitols and their polysulfated derivatives” (The Australian National University, priority 2001, dated 2007).
